Laboratory results as given in ChEMBL document CHEMBL4007388, “Synthesis and antiproliferative activity of monocationic arylthiophene derivatives” (Eur J Med Chem, 2017).

Key:
[1] = tested on: CCRF-CEM; assay: Growth inhibition of human CCRF-CEM cells incubated for 48 hrs by sulforhodamine B assay; format: functional
[2] = tested on: HL-60(TB); assay: Growth inhibition of human HL-60(TB) cells incubated for 48 hrs by sulforhodamine B assay; format: functional; conditions: HL-60, 48 h
[3] = tested on: K562; assay: Growth inhibition of human K562 cells incubated for 48 hrs by sulforhodamine B assay; format: functional; conditions: K562, 48 h
[4] = tested on: MOLT-4; assay: Growth inhibition of human MOLT4 cells incubated for 48 hrs by sulforhodamine B assay; format: functional; conditions: MOLT-4, 48 h
[5] = tested on: RPMI-8226; assay: Growth inhibition of human RPMI8226 cells incubated for 48 hrs by sulforhodamine B assay; format: functional; conditions: RPMI-8226, 48 h
[6] = tested on: SR; assay: Growth inhibition of human SR cells incubated for 48 hrs by sulforhodamine B assay; format: functional
[7] = tested on: HOP-62; assay: Growth inhibition of human HOP62 cells incubated for 48 hrs by sulforhodamine B assay; format: functional; conditions: HOP-62, 48 h
[8] = tested on: NCI-H226; assay: Growth inhibition of human NCI-H226 cells incubated for 48 hrs by sulforhodamine B assay; format: functional; conditions: NCI-H226, 48 h
[9] = tested on: NCI-H460; assay: Growth inhibition of human NCI-H460 cells incubated for 48 hrs by sulforhodamine B assay; format: functional; conditions: NCI-H460, 48 h
[10] = tested on: NCI-H522; assay: Growth inhibition of human NCI-H522 cells incubated for 48 hrs by sulforhodamine B assay; format: functional; conditions: NCI-H522, 48 h
[11] = tested on: COLO 205; assay: Growth inhibition of human COLO205 cells incubated for 48 hrs by sulforhodamine B assay; format: functional; conditions: COLO 205, 48 h
[12] = tested on: HCC 2998; assay: Growth inhibition of human HCC2998 cells incubated for 48 hrs by sulforhodamine B assay; format: functional; conditions: HCC 2998, 48 h
[13] = tested on: HCT-116; assay: Growth inhibition of human HCT116 cells incubated for 48 hrs by sulforhodamine B assay; format: functional; conditions: HCT-116, 48 h
[14] = tested on: HT-29; assay: Growth inhibition of human HT-29 cells incubated for 48 hrs by sulforhodamine B assay; format: functional; conditions: HT-29, 48 h
[15] = tested on: KM12; assay: Growth inhibition of human KM12 cells incubated for 48 hrs by sulforhodamine B assay; format: functional; conditions: KM12, 48 h
[16] = tested on: SW-620; assay: Growth inhibition of human SW620 cells incubated for 48 hrs by sulforhodamine B assay; format: functional; conditions: SW-620, 48 h
[17] = tested on: SF-539; assay: Growth inhibition of human SF539 cells incubated for 48 hrs by sulforhodamine B assay; format: functional; conditions: SF-539, 48 h
[18] = tested on: SNB-19; assay: Growth inhibition of human SNB19 cells incubated for 48 hrs by sulforhodamine B assay; format: functional; conditions: SNB-19, 48 h
[19] = tested on: SNB-75; assay: Growth inhibition of human SNB75 cells incubated for 48 hrs by sulforhodamine B assay; format: functional; conditions: SNB-75, 48 h
[20] = tested on: U-251; assay: Growth inhibition of human U251 cells incubated for 48 hrs by sulforhodamine B assay; format: functional; conditions: U-251, 48 h
[21] = tested on: LOX IMVI; assay: Growth inhibition of human LOXIMVI cells incubated for 48 hrs by sulforhodamine B assay; format: functional
[22] = tested on: Malme-3M; assay: Growth inhibition of human MALME-3M cells incubated for 48 hrs by sulforhodamine B assay; format: functional
[23] = tested on: M14; assay: Growth inhibition of human M14 cells incubated for 48 hrs by sulforhodamine B assay; format: functional; conditions: M14, 48 h
[24] = tested on: MDA-MB-435; assay: Growth inhibition of human MDA-MB-435 cells incubated for 48 hrs by sulforhodamine B assay; format: functional; conditions: MDA-MB-435, 48 h
[25] = tested on: SK-MEL-28; assay: Growth inhibition of human SK-MEL-28 cells incubated for 48 hrs by sulforhodamine B assay; format: functional; conditions: SK-MEL-28, 48 h
[26] = tested on: SK-MEL-5; assay: Growth inhibition of human SK-MEL-5 cells incubated for 48 hrs by sulforhodamine B assay; format: functional; conditions: SK-MEL-5, 48 h
[27] = tested on: UACC-257; assay: Growth inhibition of human UACC257 cells incubated for 48 hrs by sulforhodamine B assay; format: functional; conditions: UACC-257, 48 h
[28] = tested on: UACC-62; assay: Growth inhibition of human UACC62 cells incubated for 48 hrs by sulforhodamine B assay; format: functional; conditions: UACC-62, 48 h
[29] = tested on: OVCAR-3; assay: Growth inhibition of human OVCAR3 cells incubated for 48 hrs by sulforhodamine B assay; format: functional; conditions: OVCAR-3, 48 h
[30] = tested on: OVCAR-4; assay: Growth inhibition of human OVCAR4 cells incubated for 48 hrs by sulforhodamine B assay; format: functional; conditions: OVCAR-4, 48 h
[31] = tested on: OVCAR-5; assay: Growth inhibition of human OVCAR5 cells incubated for 48 hrs by sulforhodamine B assay; format: functional; conditions: OVCAR-5, 48 h
[32] = tested on: NCI/ADR-RES; assay: Growth inhibition of human NCI/ADR-RES cells incubated for 48 hrs by sulforhodamine B assay; format: functional
[33] = tested on: SK-OV-3; assay: Growth inhibition of human SKOV3 cells incubated for 48 hrs by sulforhodamine B assay; format: functional; conditions: SK-OV-3, 48 h
[34] = tested on: 786-0; assay: Growth inhibition of human 786-O cells incubated for 48 hrs by sulforhodamine B assay; format: functional; conditions: 786-0, 48 h
[35] = tested on: ACHN; assay: Growth inhibition of human ACHN cells incubated for 48 hrs by sulforhodamine B assay; format: functional
[36] = tested on: CAKI-1; assay: Growth inhibition of human Caki1 cells incubated for 48 hrs by sulforhodamine B assay; format: functional; conditions: CAKI-1, 48 h
[37] = tested on: RXF 393; assay: Growth inhibition of human RXF393 cells incubated for 48 hrs by sulforhodamine B assay; format: functional; conditions: RXF 393, 48 h
[38] = tested on: SN12C; assay: Growth inhibition of human SN12C cells incubated for 48 hrs by sulforhodamine B assay; format: functional
[39] = tested on: TK-10; assay: Growth inhibition of human TK10 cells incubated for 48 hrs by sulforhodamine B assay; format: functional; conditions: TK-10, 48 h
[40] = tested on: PC-3; assay: Growth inhibition of human PC3 cells incubated for 48 hrs by sulforhodamine B assay; format: functional; conditions: PC-3, 48 h
[41] = tested on: DU-145; assay: Growth inhibition of human DU145 cells incubated for 48 hrs by sulforhodamine B assay; format: functional; conditions: DU-145, 48 h
[42] = tested on: Hs-578T; assay: Growth inhibition of human Hs 578T cells incubated for 48 hrs by sulforhodamine B assay; format: functional
[43] = tested on: BT-549; assay: Growth inhibition of human BT549 cells incubated for 48 hrs by sulforhodamine B assay; format: functional; conditions: BT-549, 48 h
[44] = tested on: WISH; assay: Cytotoxicity against human WISH cells assessed as reduction in cell viability after 24 hrs by MTT assay; format: cell-based
[45] = Antioxidant activity assessed as superoxide dismutase-like activity by measuring inhibition of superoxide radical anion production at 2 uM by NBT reduction assay relative to control; format: functional
[46] = tested on: Escherichia coli; assay: Induction of Escherichia coli genomic DNA cleavage after 1 hr by agarose gel electrophoresis method
[47] = species on record: Homo sapiens; assay: Inhibition of PTK in human MCF7 cells at 1 uM preincubated for 2 hrs followed by poly-Glu-Tyr substrate addition by ELISA relative to control; format: cell-based
[48] = Growth inhibition of human NCI60 cells at 10 uM after 48 hrs by SRB assay relative to control; values are per cent of control; conditions: NCI60, 48 h

## N=C(N)c1ccc(-c2ccc(-c3ccc(F)cc3)s2)cc1
[1]
  GI50: 1.82 µM
[2]
  GI50: 0.679 µM
[3]
  GI50: 0.268 µM
[4]
  GI50: 1.58 µM
[5]
  GI50: 0.799 µM
[6]
  GI50: 0.307 µM
[7]
  GI50: 1.58 µM
[8]
  GI50: 2.19 µM
[9]
  GI50: 0.392 µM
[10]
  GI50: 1.87 µM
[11]
  GI50: 0.204 µM
[12]
  GI50: 0.492 µM
[13]
  GI50: 1.58 µM
[14]
  GI50: 0.323 µM
[15]
  GI50: 1.34 µM
[16]
  GI50: 0.386 µM
[17]
  GI50: 1.62 µM
[18]
  GI50: 1.93 µM
[19]
  GI50: 1.65 µM
[20]
  GI50: 0.457 µM
[21]
  GI50: 0.164 µM
[22]
  GI50: 1.55 µM
[23]
  GI50: 1.6 µM
[24]
  GI50: 1.66 µM
[25]
  GI50: 1.57 µM
[26]
  GI50: 1.6 µM
[27]
  GI50: 2.58 µM
[28]
  GI50: 1.65 µM
[29]
  GI50: 1.71 µM
[30]
  GI50: 1.63 µM
[31]
  GI50: 1.55 µM
[32]
  GI50: 1.77 µM
[33]
  GI50: 1.61 µM
[34]
  GI50: 1.47 µM
[35]
  GI50: 1.56 µM
[36]
  GI50: 1.67 µM
[37]
  GI50: 1.48 µM
[38]
  GI50: 1.59 µM
[39]
  GI50: 1.85 µM
[40]
  GI50: 1.59 µM
[41]
  GI50: 1.63 µM
[42]
  GI50: 2.16 µM
[43]
  GI50: 1.65 µM
[44]
  IC50: 232 µM
[45]
  inhibition: 59.6%
[46]
  Activity: Dose-dependent effect
[47]
  inhibition: 19 to 36%
[48]
  growth percent at 10 µM: -78.7%

## N=C(N)c1ccc(-c2ccc(-c3ccccc3)s2)cc1F
[1]
  GI50: 3.2 µM
[2]
  GI50: 2.14 µM
[3]
  GI50: 3.97 µM
[4]
  GI50: 4.4 µM
[5]
  GI50: 2.78 µM
[6]
  GI50: 3.11 µM
[7]
  GI50: 10.5 µM
[8]
  GI50: 12.9 µM
[9]
  GI50: 3.69 µM
[10]
  GI50: 6.8 µM
[11]
  GI50: 1.82 µM
[12]
  GI50: 2.45 µM
[13]
  GI50: 3.26 µM
[14]
  GI50: 3.4 µM
[15]
  GI50: 4.41 µM
[16]
  GI50: 4.05 µM
[17]
  GI50: 4.74 µM
[18]
  GI50: 11.7 µM
[19]
  GI50: 10.5 µM
[20]
  GI50: 4.7 µM
[21]
  GI50: 2.58 µM
[22]
  GI50: 3.25 µM
[23]
  GI50: 2.12 µM
[24]
  GI50: 2.18 µM
[25]
  GI50: 8.23 µM
[26]
  GI50: 3.43 µM
[27]
  GI50: 2.18 µM
[28]
  GI50: 10.3 µM
[29]
  GI50: 8.9 µM
[30]
  GI50: 10.4 µM
[31]
  GI50: 10.9 µM
[32]
  GI50: 14.1 µM
[33]
  GI50: 10.2 µM
[34]
  GI50: 6.02 µM
[35]
  GI50: 6.56 µM
[36]
  GI50: 6.79 µM
[37]
  GI50: 7.01 µM
[38]
  GI50: 8.01 µM
[39]
  GI50: 10.7 µM
[40]
  GI50: 4.18 µM
[41]
  GI50: 11.3 µM
[42]
  GI50: 10.9 µM
[43]
  GI50: 10.7 µM
[44]
  IC50: 82.2 µM
[45]
  inhibition: 54.5%
[46]
  Activity: Dose-dependent effect
[47]
  inhibition: 19 to 36%
[48]
  growth percent at 10 µM: -79.2%

## COc1cc(OC)cc(-c2ccc(-c3ccc(C(=N)N)cc3)s2)c1
[1]
  GI50: 1.88 µM
[2]
  GI50: 1.9 µM
[3]
  GI50: 0.418 µM
[4]
  GI50: 1.65 µM
[5]
  GI50: 1.46 µM
[6]
  GI50: 0.231 µM
[7]
  GI50: 1.9 µM
[8]
  GI50: 2.23 µM
[9]
  GI50: 1.84 µM
[10]
  GI50: 1.96 µM
[11]
  GI50: 1.33 µM
[12]
  GI50: 1.82 µM
[13]
  GI50: 1.76 µM
[14]
  GI50: 1.09 µM
[15]
  GI50: 1.84 µM
[16]
  GI50: 1.95 µM
[17]
  GI50: 1.75 µM
[18]
  GI50: 1.97 µM
[19]
  GI50: 1.58 µM
[20]
  GI50: 1.67 µM
[21]
  GI50: 0.924 µM
[22]
  GI50: 1.84 µM
[23]
  GI50: 1.73 µM
[24]
  GI50: 1.7 µM
[25]
  GI50: 1.79 µM
[26]
  GI50: 1.81 µM
[27]
  GI50: 2.76 µM
[28]
  GI50: 1.87 µM
[29]
  GI50: 1.95 µM
[30]
  GI50: 2.06 µM
[31]
  GI50: 1.9 µM
[32]
  GI50: 1.97 µM
[33]
  GI50: 2.08 µM
[34]
  GI50: 1.87 µM
[35]
  GI50: 1.77 µM
[36]
  GI50: 1.81 µM
[37]
  GI50: 1.81 µM
[38]
  GI50: 1.97 µM
[39]
  GI50: 1.97 µM
[40]
  GI50: 1.8 µM
[41]
  GI50: 1.77 µM
[42]
  GI50: 1.99 µM
[43]
  GI50: 1.8 µM
[44]
  IC50: 87.2 µM
[45]
  inhibition: 57%
[46]
  Activity: Dose-dependent effect
[47]
  inhibition: 19 to 36%
[48]
  growth percent at 10 µM: -74.1%
